Patent US6069128A, “Transiently membrane-permeable derivatives converted intracellularly into active peptides” (Universite Laval, priority 1998, dated 2000)
Where no end group is shown, it is not given here.

System: IL-8-induced leukocyte migration
Assay: IL-8-induced leukocyte migration into the mouse air pouch
Assay type: in vivo
Conditions: BALBc mice; 100 μg peptide intravenously in the tail one hour before subdermal IL-8 (1 μg); leukocytes collected two and a half hours after IL-8
Method: In the second series of experiments, inhibition of leukocyte migration in BALBc mice was chosen as an in vivo assay as a first step towards the use of the modified peptides in humans. 100 ug of the DRYLAIVHAT/AM peptide, diluted in cyclodextrane or polythelene glycol, was injected intravenously in the tails of BALBc mice one hour prior to the subdermal injection of IL-8. In the presence of the modified peptide, leukocyte migration was inhibited when compared to the migration observed in untreated animals (FIG. 4).
In FIG. 4, the peak increase in leukocyte migration induced by IL-8 is shown. The peptides (100 μg) (native or transformed) were injected intravenously in the tails of the BALBC mice one hour prior to IL-8 injection. The basal cell number was 0.25×10^6 cells and the increases represent the differences between the basal and the peak levels of the leukocytes collected two and a half hours after IL-8 stimulation. The data represent the mean ±SEM of the number of experiments indicated in parenthesis.

“DRYLAIVHAT/AM: acetoxymethyl ester (AM) membrane-permeable derivative of the peptide from the second intracellular loop of the interleukin 8 type A receptor (also: acetoxymethyl ester (AM) derivative)” was tested, and the “inhibition of leukocyte migration induced by IL-8” value was “inhibited”.
